Read-outs that look alike come from different tables or passages of the source.
Assays:
MCF7 cells = assay: Quantitative nanoLC-MS/MS (TMT) of ADMA-containing peptides, CARM1 KO vs parental; type: cell-based, human; parameters: Fold change KO/WT: scale not given here
MCF7 CARM1 KO cells = assay: Quantitative MS of ADMA-containing peptides in MCF7 CARM1 KO cells expressing CARM1 28-608 or CARM1 140-608, and in CARM1 KO; type: cell-based, human
[1] = MCF7, CARM1 KO (KO1-KO3) vs wild type (WT1-WT3)
[2] = CARM1 140-608 vs WT, mean of 3 replicates (log2 scale)
[3] = KO vs WT, mean of 3 replicates (log2 scale)
[4] = MCF7 CARM1 knockout vs wild type, 3 biological replicates each, values are on log2 scale
[5] = mean, CARM1 140-608 versus WT (log2 scale)
[6] = mean, CARM1 KO versus WT (log2 scale)
[7] = MCF7, CARM1 KO vs WT, three biological replicates each
[8] = CARM1 140-608 vs WT, mean of 3 replicates, log2
[9] = KO vs WT, mean of 3 replicates, log2
[10] = difference of log2 means, CARM1 140-608 vs WT
[11] = difference of log2 means, KO vs WT
[12] = ADMA-containing peptide, CARM1 knockout (KO) vs wild type (WT) MCF7 cells, 6-plex TMT experiment #1, three biological replicates each, sheet "MCF7"
[13] = ADMA-containing peptide, MCF7, CARM1 knockout (KO1-3) vs wild type (WT1-3), TMT 6-plex experiment #1
[14] = MCF7, CARM1 knockout vs wild type, n = 3 each
[15] = ratio on log2 scale, mean of 3 replicates
[16] = CARM1 140-608 versus WT, mean of three replicates (log2)
[17] = KO versus WT, mean of three replicates (log2)
[18] = log2 scale ratio, mean of n = 3

## SPGVFRPEQDPVPrMPFEK
MCF7 cells; [1]
  Fold change KO/WT: -2.083
MCF7 CARM1 KO cells; [2]
  CARM1 140-608/WT: -0.5664
MCF7 CARM1 KO cells; [3]
  KO/WT: -2.083

## GSGTGIYSNAAPPPVTYQGNLYrPLLR
MCF7 cells; CARM1 KO vs wild type MCF7 cells, 3 biological replicates each
  Fold change KO/WT: -2.788
MCF7 CARM1 KO cells; CARM1 140-608 versus WT, difference of mean log2 values
  CARM1 140-608/WT: 1.554
MCF7 CARM1 KO cells; CARM1 KO versus WT, difference of mean log2 values
  KO/WT: -1.424

## ASrGrGGLGPSWASANSGSGGSrGK
MCF7 cells; [4]
  Fold change KO/WT: 0.06985
MCF7 CARM1 KO cells; [5]
  CARM1 140-608/WT: 0.01356
MCF7 CARM1 KO cells; [6]
  KO/WT: 0.5944

## FPAGArYAGAGGLER
MCF7 cells; [7]
  Fold change KO/WT: -0.6954
MCF7 CARM1 KO cells; [8]
  CARM1 140-608/WT: -0.8137
MCF7 CARM1 KO cells; [9]
  KO/WT: -1.235

## EELLrHQLLEK
MCF7 cells; [7]
  Fold change KO/WT: -4.489
MCF7 CARM1 KO cells; [8]
  CARM1 140-608/WT: -4.245
MCF7 CARM1 KO cells; [9]
  KO/WT: -5.464

## QSSATSSFGGLGGGSVrFGPGVAFR
MCF7 cells; [4]
  Fold change KO/WT: -2.868
MCF7 CARM1 KO cells; [10]
  CARM1 140-608/WT: -2.723
MCF7 CARM1 KO cells; [11]
  KO/WT: -4.023

## VSTSGPrAFSSrSYTSGPGSR
MCF7 cells; [4]
  Fold change KO/WT: -3.7435
MCF7 CARM1 KO cells; [10]
  CARM1 140-608/WT: -3.492
MCF7 CARM1 KO cells; [11]
  KO/WT: -3.7435

## GPVGQALPrPQAPPrLQSLMGTVQQGAQSWQQR
MCF7 cells; [12]
  Fold change KO/WT: -3.859
MCF7 CARM1 KO cells; [10]
  CARM1 140-608/WT: -1.639
MCF7 CARM1 KO cells; [11]
  KO/WT: -3.859

## GMYNQrYHCPVPK
MCF7 cells; [13]
  Fold change KO/WT: -2.857
MCF7 CARM1 KO cells
  CARM1 140-608/WT: -2.175
  KO/WT: -2.857

## CAGFLEPTWLAAPPrLARPPR
MCF7 cells; [14]
  Fold change KO/WT: -1.902
MCF7 CARM1 KO cells; [15]
  CARM1 140-608/WT: -0.2739
  KO/WT: -1.902

## DQPGTSAVPNLASVGTrLPPPLPQNLLYTVSErQPMYSR
MCF7 cells; [1]
  Fold change KO/WT: -3.343
MCF7 CARM1 KO cells; [16]
  CARM1 140-608/WT: -2.641
MCF7 CARM1 KO cells; [17]
  KO/WT: -3.343

## GGGSGNFMGrGGNFGGGGGNFGrGGNFGGrGGYGGGGGGSR
MCF7 cells; [14]
  Fold change KO/WT: -0.1359
MCF7 CARM1 KO cells; [5]
  CARM1 140-608/WT: -0.1884
MCF7 CARM1 KO cells; [6]
  KO/WT: -0.008363

## RGPPPPPPGrGGrGGSR
MCF7 cells; [4]
  Fold change KO/WT: 0.3155
MCF7 CARM1 KO cells; [5]
  CARM1 140-608/WT: 0.09749
MCF7 CARM1 KO cells; [6]
  KO/WT: 0.3155

## GQPrTWLQSPV
MCF7 cells; [1]
  Fold change KO/WT: -3.17
MCF7 CARM1 KO cells; [2]
  CARM1 140-608/WT: -2.79
MCF7 CARM1 KO cells; [3]
  KO/WT: -3.17

## CPADNPGLVQAQPrVPLTPTR
MCF7 cells; [13]
  Fold change KO/WT: -4.345
MCF7 CARM1 KO cells; [18]
  CARM1 140-608/WT: -3.3817
  KO/WT: -4.345

## GPLPPPRPTPrPPVPPrGPLrGPLPQ
MCF7 cells; [1]
  Fold change KO/WT: -0.7434
MCF7 CARM1 KO cells; [2]
  CARM1 140-608/WT: 0.8489
MCF7 CARM1 KO cells; [3]
  KO/WT: -0.7434

## QSSATSSFGGLGGGSVrFGPGVAFrAPSIHGGSGGR
MCF7 cells; [4]
  Fold change KO/WT: -1.828
MCF7 CARM1 KO cells; [10]
  CARM1 140-608/WT: -1.331
MCF7 CARM1 KO cells; [11]
  KO/WT: -1.828

## LNASIAGLFPPQINIPLPPrPNLNR
MCF7 cells; [12]
  Fold change KO/WT: -2.4198
MCF7 CARM1 KO cells; [16]
  CARM1 140-608/WT: -1.542
MCF7 CARM1 KO cells; [17]
  KO/WT: -2.454

## TAAALAPASLTSArMAPALSGANLTSPrVPLSAYER
MCF7 cells; [13]
  Fold change KO/WT: -3.829
MCF7 CARM1 KO cells; [18]
  CARM1 140-608/WT: -2.654
  KO/WT: -3.829

## TPASTWASPrPLLNWSR
MCF7 cells; [1]
  Fold change KO/WT: -3.334
MCF7 CARM1 KO cells; [2]
  CARM1 140-608/WT: -2.026
MCF7 CARM1 KO cells; [3]
  KO/WT: -3.334

## LIAAAQSGLPVrIESIK
MCF7 cells; [1]
  Fold change KO/WT: -0.4316
MCF7 CARM1 KO cells; [2]
  CARM1 140-608/WT: -0.3613
MCF7 CARM1 KO cells; [3]
  KO/WT: -0.4316

## LRGPGGPrGGLGGGMR
MCF7 cells; [14]
  Fold change KO/WT: -0.02725
MCF7 CARM1 KO cells; [5]
  CARM1 140-608/WT: 0.5472
MCF7 CARM1 KO cells; [6]
  KO/WT: 1.035

## QPVPFGLVrFGVAPDHPEVK
MCF7 cells; [14]
  Fold change KO/WT: -1.677
MCF7 CARM1 KO cells; [5]
  CARM1 140-608/WT: -1.417
MCF7 CARM1 KO cells; [6]
  KO/WT: -1.677

## APAGGSLGrALMR
MCF7 cells; [12]
  Fold change KO/WT: -0.2145
MCF7 CARM1 KO cells; [10]
  CARM1 140-608/WT: -0.03816
MCF7 CARM1 KO cells; [11]
  KO/WT: 0.3587

## QTGSPGMIYSTrYGSPK
MCF7 cells; [4]
  Fold change KO/WT: -3.282
MCF7 CARM1 KO cells; [5]
  CARM1 140-608/WT: -2.435
MCF7 CARM1 KO cells; [6]
  KO/WT: -3.403

## SVVESSAPGANNLQVNALVArLPLLLPR
MCF7 cells; [1]
  Fold change KO/WT: -2
MCF7 CARM1 KO cells; [2]
  CARM1 140-608/WT: -0.343
MCF7 CARM1 KO cells; [3]
  KO/WT: -2.6091

## SPLLNQPVPELSHASLIANQSPFrAPLNVTNTAGTSLPSVDLLQK
MCF7 cells; [14]
  Fold change KO/WT: -2.328
MCF7 CARM1 KO cells; [15]
  CARM1 140-608/WT: -2.179
  KO/WT: -2.328

## APPSFPPPAASrGGLGGTR
MCF7 cells; [13]
  Fold change KO/WT: 0.1973
MCF7 CARM1 KO cells; [18]
  CARM1 140-608/WT: -0.3832
  KO/WT: 0.1973

## AVDLTKPYQNQQLSIrVPLR
MCF7 cells; [7]
  Fold change KO/WT: -2.685
MCF7 CARM1 KO cells; [8]
  CARM1 140-608/WT: -2.717
MCF7 CARM1 KO cells; [9]
  KO/WT: -4.115

## RAPVPVrGGPK
MCF7 cells; [4]
  Fold change KO/WT: 0.8174
MCF7 CARM1 KO cells; [5]
  CARM1 140-608/WT: 0.3236
MCF7 CARM1 KO cells; [6]
  KO/WT: 1.039
